Results from PMC4732562 (2015).

Test system: 3',3'-cGAMP riboswitch (Gs1761 aptamer, A2G/U72C/C73U) (RNA, riboswitch) GGUACACGACAAUACUAAACCAUCCGCGAGGAUGGGGCGGAAAGCCUAAGGGUCUCCCUGAGACAGCCGGGCUGCCGAAAUAUC
Experiment: ITC
Details: 35 °C; one set of sites; buffer in supplement

Kd [nM] | SMILES
930 | Nc1nc2c(ncn2[C@@H]2O[C@@H]3COP(=O)(O)O[C@H]4[C@@H](O)[C@H](n5cnc6c(=O)[nH]c(N)nc65)O[C@@H]4COP(=O)(O)O[C@H]3[C@H]2O)c(=O)[nH]1
70 | Nc1nc2c(ncn2[C@@H]2O[C@@H]3COP(=O)(O)O[C@H]4[C@@H](O)[C@H](n5cnc6c(N)ncnc65)O[C@@H]4COP(=O)(O)O[C@H]3[C@H]2O)c(=O)[nH]1
